How the values were obtained:
[1] = test system: Puro incorporation in tumors, muscle and kidney; assay: Immunoblotting of Puro-labeled proteins in tissue lysates of HT29 xenograft mice; assay type: in vivo, mouse; conditions: 150 mg/kg/dose daily intraperitoneal for 3 d
Experimental: FIG. 29. In vivo anticancer efficacy of Boc-KAc-Puro. (a) Tumor growth in HCT116 xenograft model. Animals were treated with acidified saline control or Boc-KAc-Puro (50 or 150 mg/kg). Values are mean±s.d. (n=5 mice per group). *** P<0.001 compared to the control group. P=0.000716 (50 mg/kg), P=0.000349 (150 mg/kg) at 10 d. (b) Body weight change during the treatment in a and was monitored as a sign of general animal health. Values are mean±s.d. (c) Tumor growth in HT29 xenograft model. Animals were treated with acidified saline control or Boc-KAc-Puro (150 mg/kg). Values are mean±s.d. (n=5 mice per group). *** P<0.001 compared to the control group. P=0.000514 (150 mg/kg) at 10 d. (d) Body weight change during the treatment in c was monitored as a sign of general animal health. Values are mean±s.d. (e) Levels of Puro-incorporated proteins were monitored by immunoblotting. […]
Cultured cells or tissue samples were sonicated in RIPA lysis buffer (1% NP-40, 0.1% SDS, 50 mM Tris-HCl pH 7.4, 150 mM NaCl, 0.5% sodium deoxycholate, 1 mM EDTA) supplemented with PMSF and protease inhibitor cocktail (Roche) on ice followed by clarification. […] Proteins of interest were detected with anti-mouse secondary antibody by chemiluminescence (ECL Kit, GE Healthcare Life Sciences). […]

Eph4 = assay: Cell viability assays (MTS, PI staining), normal mammary epithelial cells; assay type: cell-based, mouse
Experimental: FIG. 15. Inhibition of cell viability by BKAc-Puro. The cell lines were grown and analyzed as in FIG. 12.
(§1) FIG. 17. Selective cytotoxicity by BKAc-Puro on breast cancer cells. Normal mammary gland epithelial cells (Eph4) and breast cancer cells (MCF-7 and MDA-MB-231) were grown and analyzed as in FIG. 10. BF, bright field. PI, fluorescent PI channel. BKAc-Puro can selectively cause cell death in breast cancer cells (MCF-7 and MDA-MB-231) while leaving normal Eph4 cells unharmed.
(§2) Cell number was determined by cell counting using improved Neubauer hemacytometer. Cell viability was calculated as the number of viable cells divided by the total number of cells using Trypan Blue Stain (Invitrogen) to distinguish non-viable cells. Data were obtained from duplicated samples with quadruplicate measurements. MTS based cell viability assay was performed using CellTiter 96 Aqueous Cell Proliferation Assay (Promega) according to the manufacturer's instruction. […] After additional 2-3 h incubation, the absorbance of the formazan at 490 nm was measured by the microplate reader. […] Determination of non-viable cells using PI staining was performed by adding 1 μg/ml of PI solution (Sigma) to the cell culture, prior to the examination under fluorescence microscopy (Axiovert 3, Carl Zeiss) through a×32 objective equipped with a digital imaging processor (Infinity 3, Lumenera).

ARH-77 cells = assay: Live single cell imaging by fluorescence microscopy, cell surface Puro; assay type: cell-based; conditions: 20 μg/ml, 16 hr, anti-puro antibody (12D10) Alexa 647, fluorescence microscopy
Experimental: (§3) Cell surface detection of Puro by anti-puro antibody (12D10) conjugated to Alexa 647 (EMD Millipore). ARH-77 cells were treated with Puro (0.25 μg/ml) or Boc-KAc-Puro (20 μg/ml) for 16 hr then harvested by centrifugation followed by two times wash using cold washing solution (0.1% BSA in PBS). Cells were resuspended in the same solution and incubated 30 min on ice with Alexa 647 conjugated mouse IgG2a anti-puromycin antibody (12D10). Cells were washed twice with the solution followed by fluorescence microscope analysis. The specificity of the antibody was confirmed by using isotype control antibody (mouse IgG2a conjugated with Alexa 647).

[2] = test system: breast cancer cells (MCF-7 and MDA-MB-231); assay: PI staining cytotoxicity, breast cancer cells; assay type: cell-based
Experimental: as §1, §2

RPMI8226 cells = assay: Live single cell detection by FACS, cell surface Puro; assay type: cell-based; conditions: 20 μg/ml, 16 hr, anti-puro antibody (12D10) Alexa 647, FACS
Experimental: as §3, with “RPMI8226” for “ARH-77”, “FACS analysis (BD FACSCalibur).” for “fluorescence microscope analysis.”

Compound: COc1ccc(CC(NC(=O)C(CCCCNC(C)=O)NC(=O)OC(C)(C)C)C(=O)NC2C(O)[C@H](n3cnc4c(N(C)C)ncnc43)O[C@@H]2CO)cc1 (stereo partly drawn) [BKAc-Puro, N-[3′-(α-Amino-p-methoxyhydrocinnamamido)-3′-deoxy-N,N-dimethyldenosinyl)-N-α-(t-butoxycarbonyl]-N-ε-acetyl-L-lysineamide]
- Intensity of Puro incorporation, tumors versus normal muscle and kidney [1]: substantially greater in tumors
- Cell death (Eph4): unharmed
- Puro presentation on cell surface proteins (ARH-77 cells): confirmed
- Cell death [2]: selectively caused cell death
- Puro presentation on cell surface proteins (RPMI8226 cells): confirmed
